# Literature values as cited in US7776915B2, “Topical formulations and methods of use” (Tracie Martyn International, LLC, priority 2005, dated 2010).
# Legend:
# [1] = test system: neurites in the brain; settings: similar to the stimulating effect of nerve growth factor
# [2] = dosages above 500 mg/kg body weight
# [3] = target: ACE (Homo sapiens, UniProt P12821); settings: read-out: ACE inhibitor IC50
# Chain of ACE (P12821 30-1306, species assumed): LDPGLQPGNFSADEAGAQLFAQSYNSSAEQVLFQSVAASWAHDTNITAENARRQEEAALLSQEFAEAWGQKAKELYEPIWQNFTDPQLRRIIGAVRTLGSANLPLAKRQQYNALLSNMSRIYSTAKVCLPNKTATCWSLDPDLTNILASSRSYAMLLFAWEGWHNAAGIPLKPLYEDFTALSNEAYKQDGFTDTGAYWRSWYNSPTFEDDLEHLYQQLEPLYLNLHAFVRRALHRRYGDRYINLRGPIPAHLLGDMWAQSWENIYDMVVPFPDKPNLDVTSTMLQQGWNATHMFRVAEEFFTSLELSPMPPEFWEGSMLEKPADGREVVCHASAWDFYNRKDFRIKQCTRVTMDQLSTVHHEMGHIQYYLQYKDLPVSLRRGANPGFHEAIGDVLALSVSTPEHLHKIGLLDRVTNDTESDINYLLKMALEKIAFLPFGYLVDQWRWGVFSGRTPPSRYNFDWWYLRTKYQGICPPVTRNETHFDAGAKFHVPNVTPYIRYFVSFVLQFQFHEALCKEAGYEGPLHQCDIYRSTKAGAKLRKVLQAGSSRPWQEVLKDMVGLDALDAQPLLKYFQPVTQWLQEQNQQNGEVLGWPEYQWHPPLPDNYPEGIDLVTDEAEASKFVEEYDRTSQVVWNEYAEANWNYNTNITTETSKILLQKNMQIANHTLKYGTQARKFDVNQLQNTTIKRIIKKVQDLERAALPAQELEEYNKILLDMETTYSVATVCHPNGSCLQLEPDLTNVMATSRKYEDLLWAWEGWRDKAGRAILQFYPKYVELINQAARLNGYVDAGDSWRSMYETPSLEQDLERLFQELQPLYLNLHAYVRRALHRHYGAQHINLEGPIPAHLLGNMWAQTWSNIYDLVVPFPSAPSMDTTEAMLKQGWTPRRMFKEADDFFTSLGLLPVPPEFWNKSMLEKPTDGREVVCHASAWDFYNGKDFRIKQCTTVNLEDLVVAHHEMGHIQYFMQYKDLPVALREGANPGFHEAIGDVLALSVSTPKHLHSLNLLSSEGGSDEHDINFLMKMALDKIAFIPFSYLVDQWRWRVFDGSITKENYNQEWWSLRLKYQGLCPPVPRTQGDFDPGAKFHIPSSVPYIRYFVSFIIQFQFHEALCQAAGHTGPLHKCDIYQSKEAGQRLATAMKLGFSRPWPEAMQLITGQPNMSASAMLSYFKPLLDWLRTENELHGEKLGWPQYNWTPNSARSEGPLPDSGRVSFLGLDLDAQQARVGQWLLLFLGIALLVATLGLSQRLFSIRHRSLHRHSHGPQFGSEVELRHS
structure (smiles),measurement,setting,value
CC(=O)O[C@H](CC(=O)[O-])C[N+](C)(C)C.NC(N)=NCCC[C@H](N)C(=O)O [Acetyl-1-carnitine-arginate],stimulation of the growth of neurites,[1],≤ 19.5%
"NCCC(=O)N[C@@H](Cc1cnc[nH]1)C(=O)O [Carnosine, β-alanyl-L-histidine]",safety in animal studies,[2],safe
N[C@@H](CCC(=O)N[C@@H](CS)C(=O)NCC(=O)O)C(=O)O [Glutathione],IC50,[3],10.4 µM
"Cc1ncc(CO)c(CN)c1O [Pyridoxamine, 4-aminomethyl-5-hydroxy-6-methyl-3-pyridinemethanol]",water solubility,,water-soluble
